Source: patent US20220073475A1, “5-MEMBERED HETEROARYL COMPOUNDS CONTAINING A HYDROXAMATE MOIETY AND THEIR USE” (UNIVERSITE DE LILLE, priority 2019, published 2022)

These compounds were tested on OPM2 cells (assay: CFZ potency increase, ratio of CC50 of CFZ alone / with compound). Details: OPM2, compound at 7.5 μM (Table 5).
Format: cell-based, human
Excerpt: Human multiple myeloma cells OPM2 (ACC 50, DSMZ) are maintained at 0.3-0.7 10^6 cells/mL in RPMI1640 medium supplemented with GlutaMAX™, 10% fetal bovine serum and 1% penicillin-streptomycin.
We developed a cell-based, high content assay allowing the rapid detection and quantification of apoptotic cells. Caspase-3/7 activity was detected in real-time using the NucView™ 488 Caspase-3 substrate (Biotium), where the caspase-3/7 substrate peptide sequence DEVD is attached to a nucleic acid dye. The NucView™ 488 reagent crosses the plasma membrane to enter the cytoplasm, where the dye is unable to bind to DNA and remains non-fluorescent. Once the substrate has been cleaved by activated caspase-3/7 in apoptotic cells, the high-affinity DNA dye is released and migrates to the cell nucleus to stain the nucleus with a bright green fluorescence. All cell nuclei were also labeled with Hoechst 33342 (Ozyme).
For OPM2, briefly, nanoliters of compound and cytotoxic agent in DMSO stock solutions were first transferred and combined in 384-microtiter well plate using an Echo555 liquid handler (Labcyte). The exact volume of each solution to be transferred was calculated to achieve subsequently the target concentration in the 70 μL volume incubate. Final DMSO content was maintained at 0.2%. Then, 70 μL of cells treated with 1 μM NucView™ 488 and 20 ng/mL Hoechst 33342 were distributed to the plates to obtain a final density of 12,000 cells per well. The microplates were incubated at 37° C. and 5% CO2 in an automated LiCONiC STR240 UB cell incubator, and images were acquired at various times at 405 nm and 488 nm with the high-resolution automated confocal microscope INCell 6000 (GE). Four fields per well were read with the 20× objective in a confocal mode. The BioCel workstation was managed by VWorks automation control software
For all cells, Columbus software (Perkin) was used for image quantification and analysis. First, Hoechst 33342 staining was used for an automated detection of nuclei, in which the mean fluorescence intensity for NucView™ 488 was quantified. Inspection of control cells at initial time was used to set a threshold level of NucView™ 488 fluorescence to separate non apoptotic cells from apoptotic cells. Finally, for each well, the result was expressed as percentage of apoptotic cells in the total cell population. CC50 values were calculated from concentration-response curves by a nonlinear regression analysis at four parameters using Excel Fit or GraphPad Prim softwares.
Activity=(% of apoptotic cells with cytotoxic agent in combination with compound of the invention)/(% of apoptotic cells with cytotoxic agent alone). • Ratio of CC50: The CC50 of the cytotoxic agent was calculated in absence and in presence of a compound of the invention.
Activity=(CC50 of agent alone)/(CC50 of agent with compound). • Ratio of AUC. Activity=(Area of the dose-concentration curve of cytotoxic agent combined with one concentration of compound)/(Area of the dose-concentration curve of cytotoxic agent alone). (Lehar J. et al, 2008 (molecular systems biology 4:215)).
In the case of `O=C(C[C@@H](Cc1ccc2cc[nH]c2c1)n1cc(CNC(=O)c2ccc(F)cc2)nn1)NO` [Compound 176, (R)-4-fluoro-N-((1-(4-(hydroxyamino)-1-(1H-indol-6-yl)-4-oxobutan-2-yl)-1H-1,2,3-triazol-4-yl)methyl)benzamide], the “Activity: ratio (CC50 of CFZ alone)/(CC50 of CFZ in combination with compound of the invention)” value (from here on “Activity: ratio”) is reported as 1.3.
For `CC(NC(=O)c1ccc(F)c(F)c1)c1cn([C@@H](CC(=O)NO)Cc2ccc3ccccc3c2)nn1` (stereo in doubt) [Compound 78, 3,4-difluoro-N-[1-[1-[3-(hydroxyamino)-1-(2-naphthylmethyl)-3-oxo-propyl]triazol-4-yl]ethyl]benzamide], the “Activity: ratio” value was 2.0.
`CN(Cc1cn([C@@H](CC(=O)NO)Cc2ccc3ccccc3c2)nn1)C(=O)c1ccc(F)c(F)c1` [Compound 87] was tested, and the “Activity: ratio” value was 1.7.
`O=C(C[C@@H](Cc1c[nH]c2ccccc12)n1cc(C(Cc2ccc(O)cc2)NC(=O)c2ccc(F)c(F)c2)nn1)NO` (stereo partly drawn) [Compound 146, 3,4-Difluoro-N-[1-[1-[(1R)-3-(hydroxyamino)-1-(1H-indol-3-ylmethyl)-3-oxo-propyl]triazol-4-yl]-2-(4-hydroxyphenyl)ethyl]benzamide] was tested, and the “Activity: ratio” value was 1.4.
With `CC(C)CCN(Cc1cn([C@@H](CC(=O)NO)Cc2c[nH]c3ccccc23)nn1)C(=O)c1ccc(F)c(F)c1` [Compound 99, 3,4-difluoro-N-[[1-[(1R)-3-(hydroxyamino)-1-(1H-indol-3-ylmethyl)-3-oxo-propyl]triazol-4-yl]methyl]-N-isopentyl-benzamide] the “Activity: ratio” value was 2.5.
With `CC(NC(=O)c1ccc(F)c(F)c1)c1cn([C@@H](CC(=O)NO)Cc2c[nH]c3ccccc23)nn1` (stereo partly drawn) [Compound 91, 3,4-difluoro-N-[1-[1-[(1R)-3-(hydroxyamino)-1-(1H-indol-3-ylmethyl)-3-oxo-propyl]triazol-4-yl]ethyl]benzamide] the “Activity: ratio” value was 1.4.
For `O=C(C[C@@H](Cc1ccc2ccccc2c1)n1cc(CC(=O)Nc2ccc(F)c(F)c2)nn1)NO` [Compound 74, 3-{4-[(3,4-Difluoro-phenylcarbamoyl)-methyl]-[1,2,3]triazol-1-yl}-N-hydroxy-4-naphthalen-2-yl-butyramide], the “Activity: ratio” value was 1.6.
In the case of `O=C(C[C@@H](Cc1ccc2ccccc2c1)n1cc(CCNC(=O)c2ccc(F)c(F)c2)nn1)NO` [Compound 57, 3,4-difluoro-N-[2-[1-[(1R)-3-(hydroxyamino)-1-(2-naphthylmethyl)-3-oxo-propyl]triazol-4-yl]ethyl]benzamide], the “Activity: ratio” value is reported as 1.7.
In the case of `O=C(C[C@@H](Cc1c[nH]c2ccccc12)n1cc([C@H](CO)NC(=O)c2ccc(F)c(F)c2)nn1)NO` [Compound 92, 3,4-difluoro-N-[(1R)-2-hydroxy-1-[1-[(1R)-3-(hydroxyamino)-1-(1H-indol-3-ylmethyl)-3-oxo-propyl]triazol-4-yl]ethyl]benzamide], the “Activity: ratio” value is reported as 1.7.
For `O=C(C[C@@H](Cc1ccc2ccccc2c1)n1cc(CNC(=O)c2cccc(F)c2)nn1)NO` [Compound 184, (R)-3-fluoro-N-((1-(4-(hydroxyamino)-1-(naphthalen-2-yl)-4-oxobutan-2-yl)-1H-1,2,3-triazol-4-yl)methyl)benzamide], the “Activity: ratio” value was 2.4.
In the case of `O=C(C[C@@H](Cc1ccc2c(c1)OCCO2)n1cc(CNC(=O)c2ccc(F)c(F)c2)nn1)NO` [Compound 183, (R)—N-((1-(1-(2,3-dihydrobenzo[b][1,4]dioxin-6-yl)-4-(hydroxyamino)-4-oxobutan-2-yl)-1H-1,2,3-triazol-4-yl)methyl)-3,4-difluorobenzamide], the “Activity: ratio” value is reported as 1.2.
With `O=C(C[C@@H](Cc1ccc2c(c1)CCC(=O)N2)n1cc(CNC(=O)c2ccc(F)c(F)c2)nn1)NO` [Compound 171, (R)-3,4-difluoro-N-((1-(4-(hydroxyamino)-4-oxo-1-(2-oxo-1,2,3,4-tetrahydroquinolin-6-yl)butan-2-yl)-1H-1,2,3-triazol-4-yl)methyl)benzamide] the “Activity: ratio” value was 1.2.
With `CC(NC(=O)c1ccc(F)cc1)c1cn([C@@H](CC(=O)NO)Cc2ccc3ccccc3c2)nn1` (stereo partly drawn) [Compound 164, 4-fluoro-N-(1-(1-((R)-4-(hydroxyamino)-1-(naphthalen-2-yl)-4-oxobutan-2-yl)-1H-1,2,3-triazol-4-yl)ethyl)benzamide] the “Activity: ratio” value was 2.0.
For `CC(NC(=O)c1ccc(F)cc1)c1cn([C@@H](CC(=O)NO)Cc2ccc3c(c2)C(C)(C)CCC3(C)C)nn1` (stereo partly drawn) [Compound 172, 4-fluoro-N-(1-(1-((R)-4-(hydroxyamino)-4-oxo-1-(5,5,8,8-tetramethyl-5,6,7,8-tetrahydronaphthalen-2-yl)butan-2-yl)-1H-1,2,3-triazol-4-yl)ethyl)benzamide], the “Activity: ratio” value was 3.9.
`O=C(C[C@@H](Cc1csc2ccccc12)n1cc(CNC(=O)c2ccc(F)cc2)nn1)NO` [Compound 180, (R)—N-((1-(1-(benzo[b]thiophen-3-yl)-4-(hydroxyamino)-4-oxobutan-2-yl)-1H-1,2,3-triazol-4-yl)methyl)-4-fluorobenzamide] was tested, and the “Activity: ratio” value was 1.8.
In the case of `COc1ccc2cc([C@H](C)C(=O)NCc3cnnn3[C@@H](CC(=O)NO)Cc3ccc4ccccc4c3)ccc2c1` [Compound 26, (R,S)—N-hydroxy-3-(5-{[2-(6-methoxy-naphthalen-2-yl)-propionylamino]-methyl}-[1,2,3]triazol-1-yl)-4-naphthalen-2-yl-butyramide], the “Activity: ratio” value is reported as 1.8.
In the case of `CC(C)CN(Cc1cn([C@@H](CC(=O)NO)Cc2c[nH]c3ccccc23)nn1)C(=O)c1ccc(F)c(F)c1` [Compound 98, 3,4-difluoro-N-[[1-[(1R)-3-(hydroxyamino)-1-(1H-indol-3-ylmethyl)-3-oxo-propyl]triazol-4-yl]methyl]-N-isobutyl-benzamide], the “Activity: ratio” value is reported as 2.0.
In the case of `O=C(C[C@@H](Cc1c[nH]c2ccccc12)n1cc([C@@H]2CCCN2C(=O)c2ccc(F)c(F)c2)nn1)NO` [Compound 88, (3R)-3-[4-[(2S)-1-(3,4-difluorobenzoyl)pyrrolidin-2-yl]triazol-1-yl]-4-(1H-indol-3-yl)butanehydroxamic acid], the “Activity: ratio” value is reported as 1.7.
For `O=C(C[C@@H](Cc1ccc2ncsc2c1)n1cc(CNC(=O)c2ccc(F)c(F)c2)nn1)NO` [Compound 178, (R)—N-((1-(1-(benzo[d]thiazol-6-yl)-4-(hydroxyamino)-4-oxobutan-2-yl)-1H-1,2,3-triazol-4-yl)methyl)-3,4-difluorobenzamide], the “Activity: ratio” value was 1.3.
In the case of `O=C(C[C@@H](Cc1cnc2ccccc2c1)n1cc(CNC(=O)c2ccc(F)c(F)c2)nn1)NO` [Compound 143, (R)-3,4-difluoro-N-((1-(4-(hydroxyamino)-4-oxo-1-(quinolin-3-yl)butan-2-yl)-1H-1,2,3-triazol-4-yl)methyl)benzamide], the “Activity: ratio” value is reported as 1.1.

Same assay, conditions: OPM2, compound at a concentration of 3.7 μM (Table 5, footnote b)
For `CN(Cc1cn([C@@H](CC(=O)NO)Cc2ccc3c(c2)CCCC3)nn1)C(=O)c1ccc(F)cc1` [Compound 166, (R)-4-fluoro-N-((1-(4-(hydroxyamino)-4-oxo-1-(5,6,7,8-tetrahydronaphthalen-2-yl)butan-2-yl)-1H-1,2,3-triazol-4-yl)methyl)-N-methylbenzamide], the “Activity: ratio” value was 2.1.
